Test results: ChEMBL document CHEMBL1155172, “Distribution of radioactivity in bone and related structures following administration of [14C]dalbavancin to New Zealand white rabbits” (Antimicrob Agents Chemother, 2007)

Assays:
[1] = Drug level in New Zealand white rabbit compact bone assessed as [14C]dalbavancin level per gram of tissue at 20 mg/kg, iv after 12 hrs by autoradioluminography; format: ADME, organism-based, Oryctolagus cuniculus, Bone element; parameters: dose 20 mg/kg, route intravenous; conditions: in vivo
[2] = Drug level in New Zealand white rabbit skeletal muscle assessed as [14C]dalbavancin level per gram of tissue at 20 mg/kg, iv after 168 hrs by autoradioluminography; format: ADME, organism-based, Oryctolagus cuniculus; parameters: dose 20 mg/kg, route intravenous; conditions: in vivo
[3] = Drug level in New Zealand white rabbit compact bone assessed as [14C]dalbavancin level per gram of tissue at 20 mg/kg, iv after 168 hrs by autoradioluminography; format: ADME, organism-based, Oryctolagus cuniculus, Bone element; parameters: dose 20 mg/kg, route intravenous; conditions: in vivo
[4] = Drug level in human urine assessed as hydroxydalbavancin level; format: ADME, tissue-based
[5] = Drug level in New Zealand white rabbit bone assessed as [14C]dalbavancin level per gram of tissue at 20 mg/kg, iv after 24 hrs by liquid scintillation counting method; format: ADME, organism-based, Oryctolagus cuniculus, Bone element; parameters: dose 20 mg/kg, route intravenous; conditions: in vivo
Oryctolagus cuniculus = assay: Plasma concentration in New Zealand white rabbit assessed as [14C]dalbavancin level per gram of tissue at 20 mg/kg, iv after 12 hrs by liquid scintillation counting method; format: ADME, organism-based; parameters: dose 20 mg/kg, route intravenous; conditions: in vivo
[6] = Drug level in New Zealand white rabbit synovial space assessed as [14C]dalbavancin level per gram of tissue at 20 mg/kg, iv after 120 hrs by autoradioluminography; format: ADME, organism-based, Oryctolagus cuniculus; parameters: dose 20 mg/kg, route intravenous; conditions: in vivo
[7] = Drug level in New Zealand white rabbit articular cartilage assessed as [14C]dalbavancin level per gram of tissue at 20 mg/kg, iv after 120 hrs by autoradioluminography; format: ADME, organism-based, Oryctolagus cuniculus; parameters: dose 20 mg/kg, route intravenous; conditions: in vivo
[8] = Drug level in New Zealand white rabbit bone marrow assessed as [14C]dalbavancin level per gram of tissue at 20 mg/kg, iv after 168 hrs by liquid scintillation counting method; format: ADME, organism-based, Oryctolagus cuniculus; parameters: dose 20 mg/kg, route intravenous; conditions: in vivo
[9] = Drug level in New Zealand white rabbit nucleus pulposus assessed as [14C]dalbavancin level per gram of tissue at 20 mg/kg, iv after 336 hrs by liquid scintillation counting method; format: ADME, organism-based, Oryctolagus cuniculus; parameters: dose 20 mg/kg, route intravenous; conditions: in vivo
[10] = Drug level in New Zealand white rabbit epiphyseal plate assessed as [14C]dalbavancin level per gram of tissue at 20 mg/kg, iv after 168 hrs by autoradioluminography; format: ADME, organism-based, Oryctolagus cuniculus; parameters: dose 20 mg/kg, route intravenous; conditions: in vivo
[11] = Drug level in New Zealand white rabbit epiphyseal plate assessed as [14C]dalbavancin level per gram of tissue at 20 mg/kg, iv after 12 hrs by autoradioluminography; format: ADME, organism-based, Oryctolagus cuniculus; parameters: dose 20 mg/kg, route intravenous; conditions: in vivo
[12] = Drug level in New Zealand white rabbit periostium assessed as [14C]dalbavancin level per gram of tissue at 20 mg/kg, iv after 120 hrs by autoradioluminography; format: ADME, organism-based, Oryctolagus cuniculus, Periosteum; parameters: dose 20 mg/kg, route intravenous; conditions: in vivo
[13] = Drug level in New Zealand white rabbit bone marrow assessed as [14C]dalbavancin level per gram of tissue at 20 mg/kg, iv after 120 hrs by liquid scintillation counting method; format: ADME, organism-based, Oryctolagus cuniculus; parameters: dose 20 mg/kg, route intravenous; conditions: in vivo
[14] = Drug level in New Zealand white rabbit bone marrow assessed as [14C]dalbavancin level per gram of tissue at 20 mg/kg, iv after 168 hrs by autoradioluminography; format: ADME, organism-based, Oryctolagus cuniculus; parameters: dose 20 mg/kg, route intravenous; conditions: in vivo
[15] = Drug level in New Zealand white rabbit periostium assessed as [14C]dalbavancin level per gram of tissue at 20 mg/kg, iv after 336 hrs by autoradioluminography; format: ADME, organism-based, Oryctolagus cuniculus, Periosteum; parameters: dose 20 mg/kg, route intravenous; conditions: in vivo
[16] = Drug level in New Zealand white rabbit bone assessed as [14C]dalbavancin level per gram of tissue at 20 mg/kg, iv after 72 hrs by liquid scintillation counting method; format: ADME, organism-based, Oryctolagus cuniculus, Bone element; parameters: dose 20 mg/kg, route intravenous; conditions: in vivo
[17] = Drug level in New Zealand white rabbit bone marrow assessed as [14C]dalbavancin level per gram of tissue at 20 mg/kg, iv after 12 hrs by liquid scintillation counting method; format: ADME, organism-based, Oryctolagus cuniculus; parameters: dose 20 mg/kg, route intravenous; conditions: in vivo
[18] = Drug level in New Zealand white rabbit periostium assessed as [14C]dalbavancin level per gram of tissue at 20 mg/kg, iv after 24 hrs by autoradioluminography; format: ADME, organism-based, Oryctolagus cuniculus, Periosteum; parameters: dose 20 mg/kg, route intravenous; conditions: in vivo
[19] = Drug level in New Zealand white rabbit bone marrow assessed as [14C]dalbavancin level per gram of tissue at 20 mg/kg, iv after 72 hrs by autoradioluminography; format: ADME, organism-based, Oryctolagus cuniculus; parameters: dose 20 mg/kg, route intravenous; conditions: in vivo
[20] = Drug level in New Zealand white rabbit skeletal muscle assessed as [14C]dalbavancin level per gram of tissue at 20 mg/kg, iv after 12 hrs by autoradioluminography; format: ADME, organism-based, Oryctolagus cuniculus; parameters: dose 20 mg/kg, route intravenous; conditions: in vivo
[21] = Drug level in New Zealand white rabbit bone marrow assessed as [14C]dalbavancin level per gram of tissue at 20 mg/kg, iv after 24 hrs by autoradioluminography; format: ADME, organism-based, Oryctolagus cuniculus; parameters: dose 20 mg/kg, route intravenous; conditions: in vivo
[22] = Drug level in New Zealand white rabbit bone marrow assessed as [14C]dalbavancin level per gram of tissue at 20 mg/kg, iv after 12 hrs by autoradioluminography; format: ADME, organism-based, Oryctolagus cuniculus; parameters: dose 20 mg/kg, route intravenous; conditions: in vivo
[23] = Drug level in New Zealand white rabbit ligament assessed as [14C]dalbavancin level per gram of tissue at 20 mg/kg, iv after 72 hrs by autoradioluminography; format: ADME, organism-based, Oryctolagus cuniculus; parameters: dose 20 mg/kg, route intravenous; conditions: in vivo
[24] = Drug level in New Zealand white rabbit periostium assessed as [14C]dalbavancin level per gram of tissue at 20 mg/kg, iv after 72 hrs by autoradioluminography; format: ADME, organism-based, Oryctolagus cuniculus, Periosteum; parameters: dose 20 mg/kg, route intravenous; conditions: in vivo
[25] = Drug level in New Zealand white rabbit epiphyseal plate assessed as [14C]dalbavancin level per gram of tissue at 20 mg/kg, iv after 336 hrs by autoradioluminography; format: ADME, organism-based, Oryctolagus cuniculus; parameters: dose 20 mg/kg, route intravenous; conditions: in vivo
Blood = assay: Drug level in New Zealand white rabbit blood assessed as [14C]dalbavancin level per gram of tissue at 20 mg/kg, iv after 336 hrs by autoradioluminography; format: ADME, organism-based, Oryctolagus cuniculus; parameters: dose 20 mg/kg, route intravenous; conditions: in vivo
[26] = Drug level in New Zealand white rabbit meniscus assessed as [14C]dalbavancin level per gram of tissue at 20 mg/kg, iv after 72 hrs by autoradioluminography; format: ADME, organism-based, Oryctolagus cuniculus; parameters: dose 20 mg/kg, route intravenous; conditions: in vivo
[27] = Drug level in New Zealand white rabbit bone marrow assessed as [14C]dalbavancin level per gram of tissue at 20 mg/kg, iv after 336 hrs by autoradioluminography; format: ADME, organism-based, Oryctolagus cuniculus; parameters: dose 20 mg/kg, route intravenous; conditions: in vivo
Streptococcus = assay: Antibacterial activity against Streptococcus; format: functional
[28] = Drug level in New Zealand white rabbit nucleus pulposus assessed as [14C]dalbavancin level per gram of tissue at 20 mg/kg, iv after 168 hrs by liquid scintillation counting method; format: ADME, organism-based, Oryctolagus cuniculus; parameters: dose 20 mg/kg, route intravenous; conditions: in vivo
[29] = Drug level in New Zealand white rabbit ligament assessed as [14C]dalbavancin level per gram of tissue at 20 mg/kg, iv after 336 hrs by autoradioluminography; format: ADME, organism-based, Oryctolagus cuniculus; parameters: dose 20 mg/kg, route intravenous; conditions: in vivo
[30] = Drug level in New Zealand white rabbit epiphyseal plate assessed as [14C]dalbavancin level per gram of tissue at 20 mg/kg, iv after 72 hrs by autoradioluminography; format: ADME, organism-based, Oryctolagus cuniculus; parameters: dose 20 mg/kg, route intravenous; conditions: in vivo
[31] = Drug level in New Zealand white rabbit ligament assessed as [14C]dalbavancin level per gram of tissue at 20 mg/kg, iv after 168 hrs by autoradioluminography; format: ADME, organism-based, Oryctolagus cuniculus; parameters: dose 20 mg/kg, route intravenous; conditions: in vivo
[32] = Drug level in New Zealand white rabbit skeletal muscle assessed as [14C]dalbavancin level per gram of tissue at 20 mg/kg, iv after 336 hrs by autoradioluminography; format: ADME, organism-based, Oryctolagus cuniculus; parameters: dose 20 mg/kg, route intravenous; conditions: in vivo
[33] = Drug level in New Zealand white rabbit nucleus pulposus assessed as [14C]dalbavancin level per gram of tissue at 20 mg/kg, iv after 120 hrs by liquid scintillation counting method; format: ADME, organism-based, Oryctolagus cuniculus; parameters: dose 20 mg/kg, route intravenous; conditions: in vivo
[34] = Drug level in New Zealand white rabbit compact bone assessed as [14C]dalbavancin level per gram of tissue at 20 mg/kg, iv after 120 hrs by autoradioluminography; format: ADME, organism-based, Oryctolagus cuniculus, Bone element; parameters: dose 20 mg/kg, route intravenous; conditions: in vivo
[35] = Drug level in New Zealand white rabbit nucleus pulposus assessed as [14C]dalbavancin level per gram of tissue at 20 mg/kg, iv after 12 hrs by liquid scintillation counting method; format: ADME, organism-based, Oryctolagus cuniculus; parameters: dose 20 mg/kg, route intravenous; conditions: in vivo
[36] = Drug level in New Zealand white rabbit ligament assessed as [14C]dalbavancin level per gram of tissue at 20 mg/kg, iv after 12 hrs by autoradioluminography; format: ADME, organism-based, Oryctolagus cuniculus; parameters: dose 20 mg/kg, route intravenous; conditions: in vivo

## CN[C@H]1C(=O)N[C@@H]2Cc3ccc(cc3)Oc3cc4cc(c3O[C@@H]3O[C@H](C(=O)O)[C@@H](O)[C@H](O)[C@H]3NC(=O)CCCCCCCCC(C)C)Oc3ccc(cc3Cl)[C@@H](O)[C@@H]3NC(=O)[C@H](NC(=O)[C@@H]4NC(=O)[C@@H](NC2=O)c2cc(cc(O)c2Cl)Oc2cc1ccc2O)c1ccc(O)c(c1)-c1c(O[C@H]2O[C@H](CO)[C@@H](O)[C@H](O)[C@@H]2O)cc(O)cc1[C@@H](C(=O)NCCCN(C)C)NC3=O [DALBAVANCIN]
[1]
  Drug uptake: 1.56 µg/g
[2]
  Drug uptake: 0.94 µg/g
[3]
  Drug uptake: 0.34 µg/g
[4]
  Drug uptake: 8 %ID
[5]
  Drug uptake: 5.14 µg/g
Oryctolagus cuniculus
  Cp: 46.88 µg
[6]
  Drug uptake: 2.66 µg/g
[7]
  Drug uptake: 6.56 µg
[8]
  Drug uptake: 16.1 µg/g
[9]
  Drug uptake: 0.6 µg/g
[10]
  Drug uptake: 13.1 µg/g
[11]
  Drug uptake: 21.9 µg/g
[12]
  Drug uptake: 12.2 µg/g
[13]
  Drug uptake: 9.52 µg/g
[14]
  Drug uptake: 18.9 µg
[15]
  Drug uptake: 5.18 µg
[16]
  Drug uptake: 3.94 µg/g
[17]
  Drug uptake: 15.1 µg/g
[18]
  Drug uptake: 11.35 µg
[19]
  Drug uptake: 37.79 µg
[20]
  Drug uptake: 3.26 µg
[21]
  Drug uptake: 32.1 µg/g
[22]
  Drug uptake: 40.2 µg/g
[23]
  Drug uptake: 4.56 µg
[24]
  Drug uptake: 8.78 µg/g
[25]
  Drug uptake: 8.42 µg/g
Blood
  Drug uptake: 3.08 µg/g
[26]
  Drug uptake: 8.04 µg
[27]
  Drug uptake: 30.3 µg/g
Streptococcus
  MIC90: ≤ 0.03 µg/mL
[28]
  Drug uptake: 0.64 µg/g
[29]
  Drug uptake: 1.43 µg
[30]
  Drug uptake: 11.7 µg/g
[31]
  Drug uptake: 2.67 µg
[32]
  Drug uptake: 0.8 µg/g
[33]
  Drug uptake: 0.75 µg/g
[34]
  Drug uptake: 0.38 µg/g
[35]
  Drug uptake: 0.86 µg/g
[36]
  Drug uptake: 22.1 µg/g
